In patent US20260007681A1, “INDOLE DERIVATIVES AS ESTROGEN RECEPTOR DEGRADERS” (REGENTS OF THE UNIVERSITY OF MICHIGAN, priority 2022, published 2026):

Biological target: ER (Homo sapiens (Human), UniProt P03372)
Assay: Western blot analysis (Compounds B1-B278)
Type: cell-based
Settings: ER degradation by traditional Western blot; DC50 classes
Summary of the method: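 Compound-treated cells were lysed in RIPA buffer (Tris.HCl pH 7.6, 1% NP-40, deoxycholate, 0.1% SDS) with protease inhibitors; equal protein was resolved on 10% SDS-PAGE, transferred to PVDF and immunoblotted. Band intensities were quantified and normalized to GAPDH.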

ER, sequence (P03372 whole entry): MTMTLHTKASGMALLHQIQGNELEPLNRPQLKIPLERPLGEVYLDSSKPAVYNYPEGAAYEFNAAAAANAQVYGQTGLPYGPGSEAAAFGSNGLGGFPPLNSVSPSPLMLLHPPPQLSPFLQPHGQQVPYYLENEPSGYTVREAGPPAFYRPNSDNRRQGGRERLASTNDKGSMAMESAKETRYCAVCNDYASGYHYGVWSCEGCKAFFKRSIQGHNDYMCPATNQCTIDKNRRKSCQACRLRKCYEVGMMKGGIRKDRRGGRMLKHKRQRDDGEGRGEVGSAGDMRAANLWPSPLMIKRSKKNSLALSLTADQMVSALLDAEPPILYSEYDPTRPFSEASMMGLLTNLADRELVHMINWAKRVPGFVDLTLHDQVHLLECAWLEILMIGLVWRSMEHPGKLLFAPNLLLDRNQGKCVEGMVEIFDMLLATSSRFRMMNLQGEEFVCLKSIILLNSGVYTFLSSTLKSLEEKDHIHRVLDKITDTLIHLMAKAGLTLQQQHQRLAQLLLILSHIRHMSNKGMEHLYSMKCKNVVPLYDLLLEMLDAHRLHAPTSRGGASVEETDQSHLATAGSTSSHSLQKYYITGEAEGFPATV

| Traditional Western Degradation Potency | SMILES |
| --- | --- |
| A (“A”: <10 nM) | C[C@@H]1Cc2c([nH]c3ccccc23)[C@@H](c2c(F)cc(N3CCC4(CCN(C(=O)CN5Cc6cc7c(cc6C5)C(=O)N(C5CCC(=O)NC5=O)C7=O)CC4)C3)cc2F)N1CC(F)F (stereo partly drawn) [Compound B72, 6-(2-(2-(4-((1R,3R)-2-(2,2-difluoroethyl)-3-methyl-2,3,4,9-tetrahydro-1H-pyrido[3,4-b]indol-1-yl)-3,5-difluorophenyl)-2,8-diazaspiro[4.5]decan-8-yl)-2-oxoethyl)-2-(2,6-dioxopiperidin-3-yl)-6,7-dihydropyrrolo[3,4-f]isoindole-1,3(2H,5H)-dione] |
| C (“C”: >100 nM) | C[C@@H]1Cc2c([nH]c3ccccc23)[C@@H](c2c(F)cc(N3CCC(CN4Cc5cc6c(cc5C4)C(=O)N(C4CCC(=O)NC4=O)C6)CC3)cc2F)N1CC(F)F (stereo partly drawn) [Compound B73, 3-(6-((1-(4-((1R,3R)-2-(2,2-difluoroethyl)-3-methyl-2,3,4,9-tetrahydro-1H-pyrido[3,4-b]indol-1-yl)-3,5-difluorophenyl)piperidin-4-yl)methyl)-1-oxo-3,5,6,7-tetrahydropyrrolo[3,4-f]isoindol-2(1H)-yl)piperidine-2,6-dione] |
| B (“B”: 10-100 nM) | C[C@@H]1Cc2c([nH]c3ccccc23)[C@@H](c2c(F)cc(N3CC(F)(C(=O)N4CCC(CN5Cc6cc7c(cc6C5)C(=O)N(C5CCC(=O)NC5=O)C7=O)CC4)C3)cc2F)N1CC(F)F (stereo partly drawn) [Compound B74, 6-((1-(1-(4-((1R,3R)-2-(2,2-difluoroethyl)-3-methyl-2,3,4,9-tetrahydro-1H-pyrido[3,4-b]indol-1-yl)-3,5-difluorophenyl)-3-fluoroazetidine-3-carbonyl)piperidin-4-yl)methyl)-2-(2,6-dioxopiperidin-3-yl)-6,7-dihydropyrrolo[3,4-f]isoindole-1,3(2H,5H)-dione] |
| C (“C”: >100 nM) | C[C@@H]1Cc2c([nH]c3ccccc23)[C@@H](c2c(F)cc(N3CC(F)(C(=O)N4CCC(F)(CN5Cc6cc7c(cc6C5)C(=O)N(C5CCC(=O)NC5=O)C7=O)CC4)C3)cc2F)N1CC(F)F (stereo partly drawn) [Compound B75, 6-((1-(1-(4-((1R,3R)-2-(2,2-difluoroethyl)-3-methyl-2,3,4,9-tetrahydro-1H-pyrido[3,4-b]indol-1-yl)-3,5-difluorophenyl)-3-fluoroazetidine-3-carbonyl)-4-fluoropiperidin-4-yl)methyl)-2-(2,6-dioxopiperidin-3-yl)-6,7-dihydropyrrolo[3,4-f]isoindole-1,3(2H,5H)-dione] |
| A (“A”: <10 nM) | C[C@@H]1Cc2c([nH]c3ccccc23)[C@@H](c2c(F)cc(N3CC(C(=O)N4CCC(CN5Cc6cc7c(cc6C5)C(=O)N(C5CCC(=O)NC5=O)C7=O)CC4)C3)cc2F)N1CC(F)F (stereo partly drawn) [Compound B76, 6-((1-(1-(4-((1R,3R)-2-(2,2-difluoroethyl)-3-methyl-2,3,4,9-tetrahydro-1H-pyrido[3,4-b]indol-1-yl)-3,5-difluorophenyl)azetidine-3-carbonyl)piperidin-4-yl)methyl)-2-(2,6-dioxopiperidin-3-yl)-6,7-dihydropyrrolo[3,4-f]isoindole-1,3(2H,5H)-dione] |
| A (“A”: <10 nM) | C[C@@H]1Cc2c([nH]c3ccccc23)[C@@H](c2c(F)cc(C3CCC(C(=O)N4CCC(N5Cc6cc7c(cc6C5)C(=O)N(C5CCC(=O)NC5=O)C7=O)CC4)CC3)cc2F)N1CC(F)F (stereo partly drawn) [Compound B77, 6-(1-(4-(4-((1R,3R)-2-(2,2-difluoroethyl)-3-methyl-2,3,4,9-tetrahydro-1H-pyrido[3,4-b]indol-1-yl)-3,5-difluorophenyl)cyclohexane-1-carbonyl)piperidin-4-yl)-2-(2,6-dioxopiperidin-3-yl)-6,7-dihydropyrrolo[3,4-f]isoindole-1,3(2H,5H)-dione] |
| B (“B”: 10-100 nM) | C[C@@H]1Cc2c([nH]c3ccccc23)[C@@H](c2c(F)cc(C3CCC(C(=O)N4CCC(F)(CN5Cc6cc7c(cc6C5)C(=O)N(C5CCC(=O)NC5=O)C7=O)CC4)CC3)cc2F)N1CC(F)F (stereo partly drawn) [Compound B78, 6-((1-(4-(4-((1R,3R)-2-(2,2-difluoroethyl)-3-methyl-2,3,4,9-tetrahydro-1H-pyrido[3,4-b]indol-1-yl)-3,5-difluorophenyl)cyclohexane-1-carbonyl)-4-fluoropiperidin-4-yl)methyl)-2-(2,6-dioxopiperidin-3-yl)-6,7-dihydropyrrolo[3,4-f]isoindole-1,3(2H,5H)-dione] |
| C (“C”: >100 nM) | C[C@@H]1Cc2c([nH]c3ccccc23)[C@@H](c2c(F)cc(C3CCC(C(=O)N4CCC(CN5Cc6cc7c(cc6C5)C(=O)N(C5CCC(=O)NC5=O)C7=O)CC4)CC3)cc2F)N1CC(F)F (stereo partly drawn) [Compound B79, 6-((1-(4-(4-((1R,3R)-2-(2,2-difluoroethyl)-3-methyl-2,3,4,9-tetrahydro-1H-pyrido[3,4-b]indol-1-yl)-3,5-difluorophenyl)cyclohexane-1-carbonyl)piperidin-4-yl)methyl)-2-(2,6-dioxopiperidin-3-yl)-6,7-dihydropyrrolo[3,4-f]isoindole-1,3(2H,5H)-dione] |

The next lines start with the compound.

| SMILES | Traditional Western Degradation Potency |
| --- | --- |
| C[C@@H]1Cc2c([nH]c3ccccc23)[C@@H](c2c(F)cc(N3CCC(N4CCC(CN5Cc6cc7c(cc6C5)C(=O)N(C5CCC(=O)NC5=O)C7=O)CC4)C3)cc2F)N1CC(F)F (stereo partly drawn) [Compound B64, 6-((1-(1-(4-((1R,3R)-2-(2,2-difluoroethyl)-3-methyl-2,3,4,9-tetrahydro-1H-pyrido[3,4-b]indol-1-yl)-3,5-difluorophenyl)pyrrolidin-3-yl)piperidin-4-yl)methyl)-2-(2,6-dioxopiperidin-3-yl)-6,7-dihydropyrrolo[3,4-f]isoindole-1,3(2H,5H)-dione] | C (“C”: >100 nM) |
| C[C@@H]1Cc2c([nH]c3ccccc23)[C@@H](c2c(F)cc(N3CCC(CN4CCC(CN5Cc6cc7c(cc6C5)C(=O)N(C5CCC(=O)NC5=O)C7=O)CC4)CC3)cc2F)N1CC(F)F (stereo partly drawn) [Compound B65, 6-((1-((1-(4-((1R,3R)-2-(2,2-difluoroethyl)-3-methyl-2,3,4,9-tetrahydro-1H-pyrido[3,4-b]indol-1-yl)-3,5-difluorophenyl)piperidin-4-yl)methyl)piperidin-4-yl)methyl)-2-(2,6-dioxopiperidin-3-yl)-6,7-dihydropyrrolo[3,4-f]isoindole-1,3(2H,5H)-dione] | A (“A”: <10 nM) |
| C[C@@H]1Cc2c([nH]c3ccccc23)[C@@H](c2c(F)cc(N3CCC(CN4CCC(N5Cc6cc7c(cc6C5)C(=O)N(C5CCC(=O)NC5=O)C7=O)C4)CC3)cc2F)N1CC(F)F (stereo partly drawn) [Compound B66, 6-(1-((1-(4-((1R,3R)-2-(2,2-difluoroethyl)-3-methyl-2,3,4,9-tetrahydro-1H-pyrido[3,4-b]indol-1-yl)-3,5-difluorophenyl)piperidin-4-yl)methyl)pyrrolidin-3-yl)-2-(2,6-dioxopiperidin-3-yl)-6,7-dihydropyrrolo[3,4-f]isoindole-1,3(2H,5H)-dione] | A (“A”: <10 nM) |
| C[C@@H]1Cc2c([nH]c3ccccc23)[C@@H](c2c(F)cc(N3CCC(CN4CCCC(N5Cc6cc7c(cc6C5)C(=O)N(C5CCC(=O)NC5=O)C7=O)CC4)CC3)cc2F)N1CC(F)F (stereo partly drawn) [Compound B67, 6-(1-((1-(4-((1R,3R)-2-(2,2-difluoroethyl)-3-methyl-2,3,4,9-tetrahydro-1H-pyrido[3,4-b]indol-1-yl)-3,5-difluorophenyl)piperidin-4-yl)methyl)azepan-4-yl)-2-(2,6-dioxopiperidin-3-yl)-6,7-dihydropyrrolo[3,4-f]isoindole-1,3(2H,5H)-dione] | A (“A”: <10 nM) |
| C[C@@H]1Cc2c([nH]c3ccccc23)[C@@H](c2c(F)cc(N3CCC(CN4CC5(CC(N6Cc7cc8c(cc7C6)C(=O)N(C6CCC(=O)NC6=O)C8=O)C5)C4)CC3)cc2F)N1CC(F)F (stereo partly drawn) [Compound B68, 6-(2-((1-(4-((1R,3R)-2-(2,2-difluoroethyl)-3-methyl-2,3,4,9-tetrahydro-1H-pyrido[3,4-b]indol-1-yl)-3,5-difluorophenyl)piperidin-4-yl)methyl)-2-azaspiro[3.3]heptan-6-yl)-2-(2,6-dioxopiperidin-3-yl)-6,7-dihydropyrrolo[3,4-f]isoindole-1,3(2H,5H)-dione] | A (“A”: <10 nM) |
| C[C@@H]1Cc2c([nH]c3ccccc23)[C@@H](c2c(F)cc(N3CCC(CN4CCC5(CC4)CC(N4Cc6cc7c(cc6C4)C(=O)N(C4CCC(=O)NC4=O)C7=O)C5)CC3)cc2F)N1CC(F)F (stereo partly drawn) [Compound B69, 6-(7-((1-(4-((1R,3R)-2-(2,2-difluoroethyl)-3-methyl-2,3,4,9-tetrahydro-1H-pyrido[3,4-b]indol-1-yl)-3,5-difluorophenyl)piperidin-4-yl)methyl)-7-azaspiro[3.5]nonan-2-yl)-2-(2,6-dioxopiperidin-3-yl)-6,7-dihydropyrrolo[3,4-f]isoindole-1,3(2H,5H)-dione] | B (“B”: 10-100 nM) |
| C[C@@H]1Cc2c([nH]c3ccccc23)[C@@H](c2c(F)cc(N3CCC(CN4CCC5(CCC(N6Cc7cc8c(cc7C6)C(=O)N(C6CCC(=O)NC6=O)C8=O)C5)CC4)CC3)cc2F)N1CC(F)F (stereo partly drawn) [Compound B70, 6-(8-((1-(4-((1R,3R)-2-(2,2-difluoroethyl)-3-methyl-2,3,4,9-tetrahydro-1H-pyrido[3,4-b]indol-1-yl)-3,5-difluorophenyl)piperidin-4-yl)methyl)-8-azaspiro[4.5]decan-2-yl)-2-(2,6-dioxopiperidin-3-yl)-6,7-dihydropyrrolo[3,4-f]isoindole-1,3(2H,5H)-dione] | B (“B”: 10-100 nM) |
| C[C@@H]1Cc2c([nH]c3ccccc23)[C@@H](c2c(F)cc(N3CC(CC(=O)N4CC(N5Cc6cc7c(cc6C5)C(=O)N(C5CCC(=O)NC5=O)C7)C4)C3)cc2F)N1CC(F)F (stereo partly drawn) [Compound B71, 3-(6-(1-(2-(1-(4-((1R,3R)-2-(2,2-difluoroethyl)-3-methyl-2,3,4,9-tetrahydro-1H-pyrido[3,4-b]indol-1-yl)-3,5-difluorophenyl)azetidin-3-yl)acetyl)azetidin-3-yl)-1-oxo-3,5,6,7-tetrahydropyrrolo[3,4-f]isoindol-2(1H)-yl)piperidine-2,6-dione] | B (“B”: 10-100 nM) |
